Measurements from ChEMBL document CHEMBL1629667, “Activities of dalbavancin against a worldwide collection of 81,673 gram-positive bacterial isolates” (2009).
Values after ≈ are worked out from the molar mass of the structure shown.

Assays:
Type in all cases: functional
Streptococcus [1] = assay: Antimicrobial activity against Beta-hemolytic Streptococcus assessed as percent resistant isolates by broth microdilution method
Staphylococcus [2] = assay: Antimicrobial activity against Oxacillin-resistant coagulase-negative Staphylococcus assessed as percent susceptible isolate by broth microdilution method
Staphylococcus [3] = assay: Antimicrobial activity against Oxacillin-susceptible coagulase-negative Staphylococcus assessed as percent susceptible isolate by broth microdilution method
Enterococcus faecium [4] = assay: Antimicrobial activity against Vancomycin-susceptible Enterococcus faecium assessed as percent susceptible isolate by broth microdilution method
Enterococcus faecium [5] = assay: Antimicrobial activity against Vancomycin-susceptible Enterococcus faecium assessed as percent resistant isolates by broth microdilution method
Streptococcus [6] = assay: Antimicrobial activity against viridans group Streptococcus by broth microdilution method
Streptococcus [7] = assay: Antimicrobial activity against viridans group Streptococcus assessed as percent susceptible isolate by broth microdilution method
Enterococcus faecalis [8] = assay: Antimicrobial activity against Vancomycin-nonsusceptible Enterococcus faecalis by broth microdilution method
Streptococcus [9] = assay: Antimicrobial activity against Beta-hemolytic Streptococcus assessed as percent susceptible isolate by broth microdilution method
Enterococcus faecalis [10] = assay: Antimicrobial activity against Vancomycin-susceptible Enterococcus faecalis by broth microdilution method
Enterococcus faecalis [11] = assay: Antimicrobial activity against Vancomycin-nonsusceptible Enterococcus faecalis assessed as percent resistant isolates by broth microdilution method
Enterococcus faecalis [12] = assay: Antimicrobial activity against Vancomycin-nonsusceptible Enterococcus faecalis assessed as percent susceptible isolate by broth microdilution method
Staphylococcus aureus [13] = assay: Antimicrobial activity against Oxacillin-susceptible Staphylococcus aureus by broth microdilution method
Enterococcus faecium [14] = assay: Antimicrobial activity against Vancomycin-nonsusceptible Enterococcus faecium by broth microdilution method
Staphylococcus [15] = assay: Antimicrobial activity against Oxacillin-resistant coagulase-negative Staphylococcus by broth microdilution method
Enterococcus faecium [16] = assay: Antimicrobial activity against Vancomycin-susceptible Enterococcus faecium by broth microdilution method
Enterococcus faecalis [17] = assay: Antimicrobial activity against Vancomycin-susceptible Enterococcus faecalis assessed as percent resistant isolates by broth microdilution method
Enterococcus faecium [18] = assay: Antimicrobial activity against Vancomycin-nonsusceptible Enterococcus faecium assessed as percent susceptible isolate by broth microdilution method
Staphylococcus aureus [19] = assay: Antimicrobial activity against Oxacillin-resistant Staphylococcus aureus assessed as percent resistant isolate by broth microdilution method
Staphylococcus [20] = assay: Antimicrobial activity against Oxacillin-susceptible coagulase-negative Staphylococcus by broth microdilution method
Streptococcus [21] = assay: Antimicrobial activity against Beta-hemolytic Streptococcus by broth microdilution method
Staphylococcus aureus [22] = assay: Antimicrobial activity against Oxacillin-susceptible Staphylococcus aureus assessed as percent susceptible isolate by broth microdilution method
Enterococcus faecalis [23] = assay: Antimicrobial activity against Vancomycin-susceptible Enterococcus faecalis assessed as percent susceptible isolate by broth microdilution method
Staphylococcus aureus [24] = assay: Antimicrobial activity against Oxacillin-resistant Staphylococcus aureus by broth microdilution method
Enterococcus faecium [25] = assay: Antimicrobial activity against Vancomycin-nonsusceptible Enterococcus faecium assessed as percent resistant isolates by broth microdilution method
Staphylococcus [26] = assay: Antimicrobial activity against Oxacillin-susceptible coagulase-negative Staphylococcus assessed as percent resistant isolate by broth microdilution method
Streptococcus [27] = assay: Antimicrobial activity against viridans group Streptococcus assessed as percent resistant isolates by broth microdilution method
Staphylococcus [28] = assay: Antimicrobial activity against Oxacillin-resistant coagulase-negative Staphylococcus assessed as percent resistant isolate by broth microdilution method
Staphylococcus aureus [29] = assay: Antimicrobial activity against Oxacillin-resistant Staphylococcus aureus assessed as percent susceptible isolate by broth microdilution method
Staphylococcus aureus [30] = assay: Antimicrobial activity against Oxacillin-susceptible Staphylococcus aureus assessed as percent resistant isolates by broth microdilution method

| Structure (SMILES) | Activity (Streptococcus [1]) | Activity (Staphylococcus [2]) | Activity (Staphylococcus [3]) | MIC50 (Streptococcus [6]) | MIC90 (Streptococcus [6]) | Activity (Streptococcus [7]) | Activity (Streptococcus [9]) | MIC50 (Staphylococcus aureus [13]) | MIC90 (Staphylococcus aureus [13]) | MIC50 (Staphylococcus [15]) | MIC90 (Staphylococcus [15]) | Activity (Staphylococcus aureus [19]) | MIC50 (Staphylococcus [20]) | MIC90 (Staphylococcus [20]) | MIC50 (Streptococcus [21]) | MIC90 (Streptococcus [21]) | Activity (Staphylococcus aureus [22]) | MIC50 (Staphylococcus aureus [24]) | MIC90 (Staphylococcus aureus [24]) | other results |
| --- | --- | --- | --- | --- | --- | --- | --- | --- | --- | --- | --- | --- | --- | --- | --- | --- | --- | --- | --- | --- |
| CC(=O)NC[C@H]1CN(c2ccc(N3CCOCC3)c(F)c2)C(=O)O1 [LINEZOLID] | 1.3% | 99.5% | 99.9% | 1 µg/mL (≈ 2.96 µM) | 1 µg/mL (≈ 2.96 µM) | 99.9% | 100% | 2 µg/mL (≈ 5.93 µM) | 2 µg/mL (≈ 5.93 µM) | 1 µg/mL (≈ 2.96 µM) | 1 µg/mL (≈ 2.96 µM) | 0.04% | 1 µg/mL (≈ 2.96 µM) | 1 µg/mL (≈ 2.96 µM) | 1 µg/mL (≈ 2.96 µM) | 1 µg/mL (≈ 2.96 µM) | 100% | 1 µg/mL (≈ 2.96 µM) | 2 µg/mL (≈ 5.93 µM) | Activity (Enterococcus faecium [4]): 99.6%; Activity (Enterococcus faecium [5]): 0.3%; MIC50 (Enterococcus faecalis [8]): 1 µg/mL (≈ 2.96 µM); MIC90 (Enterococcus faecalis [8]): 2 µg/mL (≈ 5.93 µM); MIC50 (Enterococcus faecalis [10]): 1 µg/mL (≈ 2.96 µM); MIC90 (Enterococcus faecalis [10]): 2 µg/mL (≈ 5.93 µM); Activity (Enterococcus faecalis [11]): 1.4%; Activity (Enterococcus faecalis [12]): 98.6%; MIC50 (Enterococcus faecium [14]): 1 µg/mL (≈ 2.96 µM); MIC90 (Enterococcus faecium [14]): 2 µg/mL (≈ 5.93 µM); MIC50 (Enterococcus faecium [16]): 1 µg/mL (≈ 2.96 µM); MIC90 (Enterococcus faecium [16]): 2 µg/mL (≈ 5.93 µM); Activity (Enterococcus faecalis [17]): 0.1%; Activity (Enterococcus faecium [18]): 97.6%; Activity (Enterococcus faecalis [23]): 99.8%; Activity (Enterococcus faecium [25]): 1.8% |
| C[C@H]1COc2c(N3CCN(C)CC3)c(F)cc3c(=O)c(C(=O)O)cn1c23.C[C@H]1COc2c(N3CCN(C)CC3)c(F)cc3c(=O)c(C(=O)O)cn1c23.O [LEVOFLOXACIN] | 8.2% | 31.8% | 87.5% | 1 µg/mL | 2 µg/mL | 95.7% | 98.6% | ≤ 0.5 µg/mL | ≤ 0.5 µg/mL | 4 µg/mL | > 4 µg/mL | 80.1% | ≤ 0.5 µg/mL | 4 µg/mL | 0.5 µg/mL | 1 µg/mL | 92.8% | > 4 µg/mL | > 4 µg/mL | Activity (Staphylococcus [26]): 11.1%; Activity (Streptococcus [27]): 3.6%; Activity (Staphylococcus [28]): 61.4%; MIC (Staphylococcus aureus [13]): ≤ 0.5 µg/mL; Activity (Staphylococcus aureus [29]): 18.3%; Activity (Staphylococcus aureus [30]): 6.7%; MIC (Staphylococcus [20]): ≤ 0.5 µg/mL; MIC (Streptococcus [21]): 0.5 µg/mL |
